Results reported in PMC8808171, “Nonselective TRPC channel inhibition and suppression of aminoglycoside-induced premature termination codon readthrough by the small molecule AC1903” (The Journal of Biological Chemistry, 2022).
“Also recorded” adds a separate entry of the source.

Key:
hPiezo1 = target: T1, hPiezo1 (Homo sapiens, UniProt Q92508); experiment: [Ca2+]i recordings (Fura-2), Piezo1 in HEK T-REx cells; assay type: cell-based
T1 construct: expressed in transfected cells; host or cells: HEK T-REx (tetracycline-induced)
Protocol: Based on the findings described above, we wondered whether AC1903—which is typically used as a TRPC5 inhibitor at concentrations of 30–100 μM in cellular assays ([29], [56])—might have limited selectivity for TRPC5 channels and whether its effect on intracellular G418 levels and PTC readthrough might be the consequence of inhibition of other or multiple targets. All well-characterized TRPC channel inhibitors reported to date modulate multiple TRP(C) channels ([34], [35], [36]). […] Because limited data for the selectivity of AC1903 are available in the public domain, we decided to profile AC1903 against a selection of calcium-permeable cation channels by intracellular calcium ([Ca^2+]i) recordings using well-characterized cell lines and TRP channel activators ([46], [57], [58]), and the Ca^2+ indicator Fura-2. In these assays, cells (HEK 293, HEK T-REx, or CHO) overexpressing the relevant ion channel protein and loaded with Fura-2 AM (a cell-permeable precursor of Fura-2) were preincubated with various concentrations of AC1903 or vehicle (DMSO) for 30 min. Then, changes in ratiometric fluorescence (from background) were recorded upon addition of the respective ion channel activator.
HEK T-REx cells expressing tetracycline-inducible TRPC4, TRPC5, TRPC5–C1,TRPC4–C1, and hPiezo1 have been described previously ([46], [57], [59], [78]). […]

standard kinase panel = tested on: standard kinase panel; design: method as in PMID 29217578; settings: cited from earlier work

T1 sequence (Q92508 whole entry): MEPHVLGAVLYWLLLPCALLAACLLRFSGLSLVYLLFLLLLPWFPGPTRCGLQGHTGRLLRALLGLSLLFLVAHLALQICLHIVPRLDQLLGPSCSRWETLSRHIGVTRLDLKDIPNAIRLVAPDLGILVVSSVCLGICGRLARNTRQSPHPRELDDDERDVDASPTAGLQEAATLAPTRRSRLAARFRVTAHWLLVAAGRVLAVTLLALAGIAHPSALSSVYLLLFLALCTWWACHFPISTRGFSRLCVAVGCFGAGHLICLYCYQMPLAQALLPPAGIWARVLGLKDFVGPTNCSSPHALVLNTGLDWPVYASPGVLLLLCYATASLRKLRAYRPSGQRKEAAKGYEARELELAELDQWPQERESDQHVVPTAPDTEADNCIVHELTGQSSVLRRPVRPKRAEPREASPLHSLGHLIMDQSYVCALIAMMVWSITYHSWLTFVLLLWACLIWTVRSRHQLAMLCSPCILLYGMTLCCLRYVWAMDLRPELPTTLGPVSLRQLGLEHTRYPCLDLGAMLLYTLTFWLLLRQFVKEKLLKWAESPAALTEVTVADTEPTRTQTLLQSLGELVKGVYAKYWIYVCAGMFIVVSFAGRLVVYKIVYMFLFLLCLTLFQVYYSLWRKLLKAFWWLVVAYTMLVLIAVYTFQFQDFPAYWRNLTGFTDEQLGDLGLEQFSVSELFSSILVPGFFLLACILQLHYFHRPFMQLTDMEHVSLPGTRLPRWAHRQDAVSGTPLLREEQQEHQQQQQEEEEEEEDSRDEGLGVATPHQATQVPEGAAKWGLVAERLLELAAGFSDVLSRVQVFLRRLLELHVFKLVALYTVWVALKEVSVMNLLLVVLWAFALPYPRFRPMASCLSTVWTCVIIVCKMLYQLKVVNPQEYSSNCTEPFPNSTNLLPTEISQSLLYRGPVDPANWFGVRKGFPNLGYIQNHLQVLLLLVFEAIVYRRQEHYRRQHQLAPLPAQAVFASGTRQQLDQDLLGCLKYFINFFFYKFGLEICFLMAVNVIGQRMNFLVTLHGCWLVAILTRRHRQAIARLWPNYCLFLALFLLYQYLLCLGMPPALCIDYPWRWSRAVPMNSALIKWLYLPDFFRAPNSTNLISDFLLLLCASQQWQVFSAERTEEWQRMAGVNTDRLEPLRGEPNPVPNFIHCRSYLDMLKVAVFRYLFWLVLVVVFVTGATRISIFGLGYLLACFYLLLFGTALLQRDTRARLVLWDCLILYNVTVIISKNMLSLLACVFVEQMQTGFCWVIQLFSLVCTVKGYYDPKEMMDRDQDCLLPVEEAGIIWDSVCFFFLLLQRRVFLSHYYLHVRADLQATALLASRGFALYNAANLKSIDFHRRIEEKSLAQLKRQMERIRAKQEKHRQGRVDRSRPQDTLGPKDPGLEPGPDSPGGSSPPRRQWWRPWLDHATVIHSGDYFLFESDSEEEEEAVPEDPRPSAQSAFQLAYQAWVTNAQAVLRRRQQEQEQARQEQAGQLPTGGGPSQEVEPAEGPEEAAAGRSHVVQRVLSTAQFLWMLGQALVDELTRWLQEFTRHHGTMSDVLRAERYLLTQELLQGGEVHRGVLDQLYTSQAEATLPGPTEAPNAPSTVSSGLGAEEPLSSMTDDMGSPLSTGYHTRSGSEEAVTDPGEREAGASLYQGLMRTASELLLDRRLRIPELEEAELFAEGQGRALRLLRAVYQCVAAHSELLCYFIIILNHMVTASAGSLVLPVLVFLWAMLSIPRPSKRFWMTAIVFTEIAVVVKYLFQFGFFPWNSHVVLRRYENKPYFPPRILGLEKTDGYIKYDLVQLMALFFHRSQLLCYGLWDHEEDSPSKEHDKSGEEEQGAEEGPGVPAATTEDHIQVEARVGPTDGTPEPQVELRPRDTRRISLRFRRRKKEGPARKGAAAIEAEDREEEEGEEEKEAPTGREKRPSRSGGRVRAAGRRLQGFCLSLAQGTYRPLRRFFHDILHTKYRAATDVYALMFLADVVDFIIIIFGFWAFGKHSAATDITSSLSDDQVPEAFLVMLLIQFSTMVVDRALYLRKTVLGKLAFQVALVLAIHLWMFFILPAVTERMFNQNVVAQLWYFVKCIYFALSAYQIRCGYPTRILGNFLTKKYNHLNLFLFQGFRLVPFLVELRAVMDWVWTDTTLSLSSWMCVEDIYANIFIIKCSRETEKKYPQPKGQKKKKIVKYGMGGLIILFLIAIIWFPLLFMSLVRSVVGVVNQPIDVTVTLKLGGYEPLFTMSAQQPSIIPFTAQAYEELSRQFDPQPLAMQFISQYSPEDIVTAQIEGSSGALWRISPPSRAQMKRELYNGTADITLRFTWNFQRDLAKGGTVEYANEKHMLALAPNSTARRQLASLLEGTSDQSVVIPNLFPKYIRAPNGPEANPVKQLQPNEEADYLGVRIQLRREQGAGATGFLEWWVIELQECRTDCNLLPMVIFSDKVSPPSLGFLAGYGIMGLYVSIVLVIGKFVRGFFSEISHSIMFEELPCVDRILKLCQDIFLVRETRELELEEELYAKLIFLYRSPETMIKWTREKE

## c1ccc(Cn2c(NCc3ccco3)nc3ccccc32)cc1 [AC1903]
hPiezo1; AC1903 up to 30 μM
  inhibition of Yoda1-activated Piezo1 channels: does not affect; also recorded: did not inhibit
hPiezo1; HEK T-REx, activator Yoda1 (3 μM)
  IC50: > 100 µM
Standard kinase panel
  off-target effects in a standard kinase panel: no off-target effects were found
